Measurements as given in patent EP1285918A1, “C7 Ester substituted taxanes as antitumor agents” (Florida State University Research Foundation, Inc., priority 2001, dated 2003).
Read-outs that look alike come from different tables or passages of the source.

What was measured:
HCT116 = test: In Vitro cytotoxicity measured by the cell colony formation assay; type: cell-based; settings: Homo sapiens, HCT-116; 72 h drug incubation, colonies counted after 7 days; concentration producing 50% inhibition of colony formation; read-out: IN VITRO ID 50 (nm) HCT116
[1] = system: A2780 Human Ovarian Carcinoma Xenografts; settings: for MDS (n) / Complete Response / Partial Response / Stable Disease / Survivors / Toxic Deaths / Mean Score: i.v. qd x 1 (mg/kg: Taxol 24, 1351 75.3, 1401 107.6, 1418 107.6, Taxotere 70); for MDS (n): 2.0 g cut-off; for MDS (n) / Complete Response / Partial Response / Stable Disease / Survivors / Toxic Deaths: Day 60; for Mean Score: tumor score 1 to 10, group mean; for survival extension compared to Group 1 controls: i.v. qd x 1 (mg/kg: Taxol 24, 1418 107.6, Taxotere 70)
Method: Other antitumor compounds were similarly formulated. […] The dosing volume was 0.3 ml per 20 g mouse.
Female NCr-nude mice (implanted subcutaneously with 1 mm^3 A2780 ovarian carcinoma fragments in the flank) were sorted into treatment groups of five mice each, except for the Taxotere treatment group including six mice. […] Dosing was initiated on Day 1. The antitumor compounds were given i.v. at an estimated maximum tolerated dose (MTD) appropriate for each agent on a qd x 1 schedule (single administration of compound). […] Taxotere was given i.v. on a qd x 1 schedule at a dose of 70 mg/kg. The vehicle was administered i.v. to control mice in Group 1 on the qd x 1 schedule. Treatment groups are detailed in Table 7. The study was terminated on Day 60.
(§1) The results are summarized in Table 8 and include mean days of survival (MDS), number of toxic deaths, number of survivors, number of complete or partial responses, and number with stable disease. The mean days of survival is the number of days after which a neoplasm reached a size of 2.0 g and the animal was euthanized. A complete response is obtained if the tumor is not palpable at the end of the study. A partial response is obtained if the tumor shrinks to a size smaller than its size on Day 1 of the study.

SK-MES carcinoma = test: In vivo evaluation against SK-MES human lung carcinoma xenograft, i.v. (Example 11)
Method: Two antitumor compounds were formulated for an i.v. dosing regime prepared in the following vehicle: 10% ethanol, 10% Cremophor and 80% isotonic saline. […] Other compounds were formulated similarly.
The MTDs for the antitumor compounds were calculated from earlier single dose data for mice receiving i.v. administration of these compounds. […] Vehicle control animals were dosed twice intravenously with half the total volume being given separated by one hour. The study was terminated at Day 60.
as §1, with “1” for “8”, “1.5” for “2.0”
A tumor scoring system was designed to provide a more quantitative ranking of efficacy (therapeutic potential) among the antitumor agents evaluated against the different human solid tumor xenografts. Each mouse in a study was given a score of from 1 to 10 at the end of the study. The scores can be summarized as follows:
The individual score for each mouse was averaged into a mean score for each treatment group. […]

[2] = system: MX-1 Human Breast Carcinoma Xenograft; settings: i.v. qd x 1 (Taxol 36 mg/kg split dose, 1393 72.6 mg/kg)
Method: Antitumor compounds were formulated for an i.v. dosing regime (single i.v. bolus on qd x 1 schedule) prepared in the following vehicle: 5% ethanol, 5% Cremophor and 90% isotonic saline. […] Other compounds were similarly formulated. […] The dosing volume was 0.3 ml per 20 g mouse.
All vehicle control animals in the split dosing regimes were dosed twice intravenously with half the total volume being given separated by one hour. The study was terminated on Day 60.
(§2) The mean days of survival is the number of days after which a neoplasm reached a size of 2.0 g and the animal was euthanized. A complete response is obtained if the tumor is not palpable at the end of the study. A partial response is obtained if the tumor shrinks to a size smaller than its size on Day 1 of the study. […]

[3] = system: SKMES Human Lung Carcinoma Xenograft
Method: Antitumor compounds were formulated for oral administration over a wide dose range in a study to investigate the efficacy of this compound against the SKMES human lung cancer xenograft. The antitumor compounds were prepared in the following vehicle: 5% ethanol, 5% Cremophor and 90% isotonic saline.
Female Nu/Nu mice (6-8 weeks of age; implanted with 1 mm^3 SKMES lung carcinoma fragments in the flank) were sorted into treatment groups of six mice each. SKMES size ranges and group mean SKMES size ranges were 126-448 mg and 238-241 mg, respectively. […] Treatments were administered as a single oral bolus on Day 1, and the study was terminated on Day 60.
as §2, with “which a SKMES neoplasm reached” for “which a neoplasm reached”

[4] = system: HCT116 Human Colon Carcinoma Xenograft; settings: HCT116, i.v. Day 1 (Taxol 36 mg/kg split dose, 1393 73 mg/kg single dose)
[5] = i.v. split dose qd x 1 at MTD (Taxol 36 mg/kg, 1393 72.1 mg/kg), 6 mice/group, Day 60
[6] = tumor score 1 to 10, group mean
[7] = 5.2 mg/kg single oral bolus Day 1, 6 mice/group, study end Day 60
[8] = 10.4 mg/kg single oral bolus Day 1, 6 mice/group, study end Day 60
[9] = 20.8 mg/kg single oral bolus Day 1, 6 mice/group, study end Day 60
[10] = 42 mg/kg single oral bolus Day 1, 6 mice/group, study end Day 60
[11] = 73 mg/kg single oral bolus Day 1, 6 mice/group, study end Day 60
[12] = 104 mg/kg single oral bolus Day 1, 6 mice/group, study end Day 60
[13] = SKMES, 1418 single oral bolus 90 mg/kg (Group 4), 6 mice, Day 60

## CCC(=O)O[C@H]1C[C@H]2OC[C@@]2(OC(C)=O)[C@H]2[C@H](OC(=O)c3ccccc3)[C@]3(O)C[C@H](OC(=O)[C@H](O)[C@@H](NC(=O)OC(C)(C)C)c4ccoc4)C(C)=C([C@@H](O)C(=O)[C@]12C)C3(C)C [Compound 1401]
HCT116
  IC50: < 1 nM
[1]
  MDS (n): 32.1 ± 3.9 (4) days
  Complete Response: 0
  Partial Response: 0
  Stable Disease: 1
  Survivors: 1
  Toxic Deaths: 0
  Mean Score: 3.4 ± 0.4

## CCC(=O)O[C@H]1C[C@H]2OC[C@@]2(OC(C)=O)[C@H]2[C@H](OC(=O)c3ccccc3)[C@]3(O)C[C@H](OC(=O)[C@H](O)[C@@H](NC(=O)OC(C)(C)C)c4ccco4)C(C)=C([C@@H](O)C(=O)[C@]12C)C3(C)C [Compound 1393, 3'-Desphenyl-3'-(2-furyl)-7-propionyl taxotere]
SK-MES carcinoma; 1393 72.1 mg/kg i.v.
  complete response rate: 100%
  days between which complete responses occurred: 14 to 24 days
SK-MES carcinoma; [5]
  Complete Response: 6
  Partial Response: 0
  Stable Disease: 0
  Toxic Deaths: 0
SK-MES carcinoma; i.v. split dose qd x 1 at MTD (Taxol 36 mg/kg, 1393 72.1 mg/kg), tumor score 1 to 10 per mouse, group mean
  Mean Score: 10+0
[2]; 6 mice/group, Day 60
  Partial Response: 1
  Stable Disease: 0
[2]; [6]
  Mean Score: 9.8 ± 0.2
[3]; [7]
  Toxic Deaths: 0
[3]; [8]
  Toxic Deaths: 0
[3]; [9]
  Toxic Deaths: 0
[3]; [10]
  Toxic Deaths: 0
[3]; 42 mg/kg single oral bolus Day 1, 6 mice/group, study end Day 60, days until tumor reached 2.0 g
  MDS (n): 23.2 ± 4.8 (4) days
[3]; [11]
  % Total Response: 83.3%
  Toxic Deaths: 0
[3]; [12]
  % Total Response: 83.3%
  Toxic Deaths: 0
[3]; SKMES, 1393 single oral bolus 42 mg/kg (Group 7), 2.0 g cut-off
  MDS: 23.2 days
[4]; 5 mice/group, Day 60
  Partial Response: 4
  Stable Disease: 0
[4]; [6]
  Mean Score: 9.2 ± 0.2

## CCC(=O)O[C@H]1C[C@H]2OC[C@@]2(OC(C)=O)[C@H]2[C@H](OC(=O)c3ccccc3)[C@]3(O)C[C@H](OC(=O)[C@H](O)[C@@H](NC(=O)OC(C)(C)C)c4cccs4)C(C)=C([C@@H](O)C(=O)[C@]12C)C3(C)C [Compound 1418]
HCT116
  IC50: < 1 nM
[1]
  MDS (n): 32.0 ± 2.3 (5) days
  Complete Response: 0
  Partial Response: 0
  Stable Disease: 0
  Survivors: 0
  Toxic Deaths: 0
  Mean Score: 3 ± 0
  survival extension compared to Group 1 controls: approximately 300%
[3]; 90 mg/kg single oral bolus Day 1, 6 mice/group, study end Day 60
  Toxic Deaths: 0
[3]; SKMES, 1418 single oral bolus 90 mg/kg (Group 4)
  total response rate: 100%
[3]; [13]
  Complete Responses: four
  Partial Responses: two
[3]; po, 90 mg/kg
  % Total Response: 100%
  Complete Responses: 4
  Partial Responses: 2

## CCC(=O)OC1CC2OCC2(OC(C)=O)C2C(OC(=O)c3ccccc3)C3(O)CC(OC(=O)C(O)C(NC(=O)OC(C)(C)C)c4ccco4)C(C)=C(C(O)C(=O)C12C)C3(C)C (centres unmarked) [Compound 1393, 3'-Desphenyl-3'-(2-furyl)-7-propionyl taxotere]
SK-MES carcinoma; [5]
  Complete Response: six
[2]; 6 mice/group, Day 60
  Survivors: 6
[3]; [7]
  Survivors: 1
[3]; [8]
  Survivors: 1
[3]; [9]
  Survivors: 0
[3]; [10]
  Survivors: 2
[3]; [11]
  Survivors: 5
[3]; [12]
  Survivors: 6
[4]; 5 mice/group, Day 60
  Survivors: 5

## CC(=O)O[C@@]12CO[C@@H]1C[C@H](O)[C@@]1(C)C(=O)[C@H](O)C3=C(C)[C@@H](OC(=O)[C@H](O)[C@@H](NC(=O)OC(C)(C)C)c4ccccc4)C[C@@](O)([C@@H](OC(=O)c4ccccc4)[C@H]21)C3(C)C [docetaxel, reference compound]
HCT116
  IC50: 0.6 nM
[1]
  MDS (n): 27.4 ± 3.5 (5) days
  Complete Response: 0
  Partial Response: 0
  Stable Disease: 0
  Survivors: 0
  Toxic Deaths: 0
  Mean Score: 2.5 ± 0.3
  survival extension compared to Group 1 controls: 134%

## CCC(=O)O[C@H]1C[C@H]2OC[C@@]2(OC(C)=O)[C@H]2[C@H](OC(=O)c3ccccc3)[C@]3(O)C[C@H](OC(=O)[C@H](O)[C@H](C=C(C)C)NC(=O)OC(C)(C)C)C(C)=C([C@@H](O)C(=O)[C@]12C)C3(C)C [Compound 1351]
HCT116
  IC50: < 1 nM
[1]; 1351 75.3 mg/kg i.v. qd x 1
  total response rate: at least 20%
[1]
  MDS (n): 23.0 ± 1.7 (4) days
  Complete Response: 0
  Partial Response: 1
  Stable Disease: 0
  Survivors: 1
  Toxic Deaths: 0
  Mean Score: 3.6 ± 1.1
